According to US20230125482A1, “PROTEIN KINASE C MODULATORS” (Young Therapeutics, LLC, priority 2020, published 2023):
Where a SMILES comes first, the peptide text is derived from it. The star is where a group is joined. Myristoyl = CCCCCCCCCCCCCC(=O)*

Key:
Solubility of peptide = type: physicochemical
isolated rat hearts = assay: Myocardial ischemia/reperfusion (I/R) injury in isolated rat hearts (Langendorff, ex vivo); details: for Final Coronary Flow / Final Heart Rate / Final LVDP / Final LVEDP / Final LVESP / Final dP/dtmax / Final dP/dtmin: 50 min post-reperfusion; for Infarct Size: I(30 min)/R(50 min), infarct tissue weight/total tissue weight; for Initial Coronary Flow / Initial Heart Rate / Initial LVDP / Initial LVEDP / Initial LVESP / Initial dP/dtmax / Initial dP/dtmin: baseline before ischemia
Experimental: Rat hearts were isolated from anesthetized male Sprague Dawley rats (275-325 g), placed in ice-cold Krebs' buffer, and placed onto a Langendorff heart apparatus and retro perfused with Krebs' buffer at a constant pressure of 80 mmHg (FIG. 1). A pressure transducer measures heart rate, left ventricular end-systolic pressure, end-diastolic pressure, dP/dt max, and dP/dt min. Coronary flow is measured via a flow probe connected to the perfusion tubing. Cardiac function was recorded throughout the experimental protocol using a pressure transducer inserted into the left ventricle (15 min baseline; global I(30 min)/R(50 min)). Selected peptides of TABLE 1 or vehicle (control [0.05 to 0.2% Dimethylsulfoxide) were given during the first 5 min of reperfusion. All peptide inhibitors or activators were dissolved in 28% DMSO and the final concentration of DMSO with peptides or without peptides (control I/R hearts) delivered to all hearts was 0.06%. Statistical analysis was performed using ANOVA and Bonferroni-Dunn post-hoc test.
At the end of the experimental protocol, hearts were removed from the Langendorff apparatus, and frozen for 30 min at −20° C. Hearts were sectioned (2 mm) from base to apex and placed in 1% TTC for ˜10 min at 37° C. Viable tissue stained red and infarcted tissue was unstained (pale). Total tissue sections were weighed and infarcted tissue was separated from viable tissue and weighed to determine infarct size (i.e. infarct tissue weight/total tissue weight).

With CCCCCCCCCCCCCC(=O)N[C@@H](Cc1ccc(O)cc1)C(=O)NCC(=O)N[C@@H](CCCNC(=N)N)C(=O)N[C@@H](CCCCN)C(=O)N[C@@H](CCCCN)C(=O)N[C@@H](CCCNC(=N)N)C(=O)N[C@@H](CCCNC(=N)N)C(=O)N[C@@H](CCC(N)=O)C(=O)N[C@@H](CCCNC(=N)N)C(=O)N[C@@H](CCCNC(=N)N)C(=O)N[C@@H](CCCNC(=N)N)C(=O)N[C@@H](CS)C(=O)N[C@@H](CS)C(=O)N[C@@H](CCC(=O)O)C(=O)N[C@@H](C)C(=O)N[C@H](C(=O)N[C@@H](CO)C(=O)N[C@@H](CC(C)C)C(=O)N[C@@H](CCCCN)C(=O)N1CCC[C@H]1C(=O)N[C@H](C(=O)O)[C@@H](C)O)C(C)C [Myr + TAT + PKCε-] (Myristoyl-YGRKKRRQRRRCCEAVSLKPT-OH; C-terminus assumed) the solubility (Solubility of peptide) was ≤ 100 mM, the “Final Coronary Flow” value (isolated rat hearts; 100 pM) was 10 ± 1 mL/min and the “Final Heart Rate” value (isolated rat hearts; 100 pM) was 252 ± 8 BPM. For the same molecule, the “Final LVDP” value (isolated rat hearts; 100 pM) was 47 ± 11 mmHg, the “Final LVEDP” value (isolated rat hearts; 100 pM) was 47 ± 10 mmHg and the “Final LVESP” value (isolated rat hearts; 100 pM) was 94 ± 14 mmHg. The “Final dP/dtmax” value (isolated rat hearts; 100 pM) was 1021 ± 246 mmHg/s, the “Final dP/dtmin” value (isolated rat hearts; 100 pM) was −688 ± 142 mmHg/s and the “Infarct Size” value (isolated rat hearts; 100 pM) was 18 ± 1%. For the same molecule, the “Initial Coronary Flow” value (isolated rat hearts; 100 pM) was 18 ± 2 mL/min, the “Initial Heart Rate” value (isolated rat hearts; 100 pM) was 285 ± 6 BPM and the “Initial LVDP” value (isolated rat hearts; 100 pM) was 89 ± 3 mmHg. The “Initial LVEDP” value (isolated rat hearts; 100 pM) was 10 ± 0.4 mmHg, the “Initial LVESP” value (isolated rat hearts; 100 pM) was 100 ± 3 mmHg and the “Initial dP/dtmax” value (isolated rat hearts; 100 pM) was 2457 ± 37 mmHg/s. For the same molecule, the “Initial dP/dtmin” value (isolated rat hearts; 100 pM) was −1726 ± 49 mmHg/s, the “Final Coronary Flow” value (isolated rat hearts; 1 nM) was 10 ± 1 mL/min and the “Final Heart Rate” value (isolated rat hearts; 1 nM) was 266 ± 6 BPM. For the same molecule, the “Final LVDP” value (isolated rat hearts; 1 nM) was 49 ± 8 mmHg, the “Final LVEDP” value (isolated rat hearts; 1 nM) was 52 ± 9 mmHg and the “Final LVESP” value (isolated rat hearts; 1 nM) was 101 ± 9 mmHg. The “Final dP/dtmax” value (isolated rat hearts; 1 nM) was 1147 ± 156 mmHg/s, the “Final dP/dtmin” value (isolated rat hearts; 1 nM) was −733 ± 68 mmHg/s and the “Infarct Size” value (isolated rat hearts; 1 nM) was 10 ± 2 %. The “Initial Coronary Flow” value (isolated rat hearts; 1 nM) was 18 ± 1 mL/min, the “Initial Heart Rate” value (isolated rat hearts; 1 nM) was 293 ± 13 BPM and the “Initial LVDP” value (isolated rat hearts; 1 nM) was 91 ± 4 mmHg. For the same molecule, the “Initial LVEDP” value (isolated rat hearts; 1 nM) was 10 ± 1 mmHg, the “Initial LVESP” value (isolated rat hearts; 1 nM) was 101 ± 5 mmHg and the “Initial dP/dtmax” value (isolated rat hearts; 1 nM) was 2440 ± 72 mmHg/s. The “Initial dP/dtmin” value (isolated rat hearts; 1 nM) was −1674 ± 106 mmHg/s, the “Final Coronary Flow” value (isolated rat hearts; 30 nM) was 9 ± 1 mL/min and the “Final Heart Rate” value (isolated rat hearts; 30 nM) was 261 ± 11 BPM. For the same molecule, the “Final LVDP” value (isolated rat hearts; 30 nM) was 48 ± 10 mmHg, the “Final LVEDP” value (isolated rat hearts; 30 nM) was 50 ± 15 mmHg and the “Final LVESP” value (isolated rat hearts; 30 nM) was 108 ± 3 mmHg. The “Final dP/dtmax” value (isolated rat hearts; 30 nM) was 1059 ± 336 mmHg/s, the “Final dP/dtmin” value (isolated rat hearts; 30 nM) was −733 ± 99 mmHg/s and the “Infarct Size” value (isolated rat hearts; 30 nM) was 14 ± 2%. The “Initial Coronary Flow” value (isolated rat hearts; 30 nM) was 16 ± 1 mL/min, the “Initial Heart Rate” value (isolated rat hearts; 30 nM) was 271 ± 7 BPM and the “Initial LVDP” value (isolated rat hearts; 30 nM) was 88 ± 2 mmHg. The “Initial LVEDP” value (isolated rat hearts; 30 nM) was 11 ± 1 mmHg, the “Initial LVESP” value (isolated rat hearts; 30 nM) was 99 ± 2 mmHg and the “Initial dP/dtmax” value (isolated rat hearts; 30 nM) was 2344 ± 22 mmHg/s. The “Initial dP/dtmin” value (isolated rat hearts; 30 nM) was −1588 ± 18 mmHg/s, the “restoration of post-reperfused cardiac function compared to control I/R hearts” value (isolated rat hearts; 100 nM given at the beginning of reperfusion for 5 minutes, 25 to 50 min) was “significantly restored post-reperfused cardiac function” and the “Final Coronary Flow” value (isolated rat hearts; 100 nM) was 11 ± 2 mL/min. For the same molecule, the “Final Heart Rate” value (isolated rat hearts; 100 nM) was 254 ± 12 BPM, the “Final LVDP” value (isolated rat hearts; 100 nM) was 66 ± 6 mmHg and the “Final LVEDP” value (isolated rat hearts; 100 nM) was 48 ± 13 mmHg. For the same molecule, the “Final LVESP” value (isolated rat hearts; 100 nM) was 114 ± 11 mmHg, the “Final dP/dtmin” value (isolated rat hearts; 100 nM) was −981 ± 135 mmHg/s and the “Infarct Size” value (isolated rat hearts; 100 nM) was 8 ± 2 %. For the same molecule, the “Initial Coronary Flow” value (isolated rat hearts; 100 nM) was 20 ± 2 mL/min, the “Initial Heart Rate” value (isolated rat hearts; 100 nM) was 301 ± 10 BPM and the “Initial LVDP” value (isolated rat hearts; 100 nM) was 89 ± 4 mmHg. The “Initial LVEDP” value (isolated rat hearts; 100 nM) was 9 ± 1 mmHg, the “Initial LVESP” value (isolated rat hearts; 100 nM) was 98 ± 3 mmHg and the “Initial dP/dtmax” value (isolated rat hearts; 100 nM) was 2528 ± 133 mmHg/s. For the same molecule, the “Initial dP/dtmin” value (isolated rat hearts; 100 nM) was −1807 ± 125 mmHg/s, the “Final Coronary Flow” value (isolated rat hearts; 1 μM) was 10 ± 3 mL/min and the “Final Heart Rate” value (isolated rat hearts; 1 μM) was 296 ± 86 BPM. For the same molecule, the “Final LVDP” value (isolated rat hearts; 1 μM) was 40 ± 15 mmHg, the “Final LVEDP” value (isolated rat hearts; 1 μM) was 60 ± 12 mmHg and the “Final LVESP” value (isolated rat hearts; 1 μM) was 101 ± 6 mmHg. For the same molecule, the “Final dP/dtmax” value (isolated rat hearts; 1 μM) was 794 ± 220 mmHg/s, the “Final dP/dtmin” value (isolated rat hearts; 1 μM) was −616 ± 122 mmHg/s and the “Infarct Size” value (isolated rat hearts; 1 μM) was 5 ± 2 %. The “Initial Coronary Flow” value (isolated rat hearts; 1 μM) was 21 ± 1 mL/min, the “Initial Heart Rate” value (isolated rat hearts; 1 μM) was 274 ± 15 BPM and the “Initial LVDP” value (isolated rat hearts; 1 μM) was 94 ± 5 mmHg. For the same molecule, the “Initial LVEDP” value (isolated rat hearts; 1 μM) was 10 ± 2 mmHg, the “Initial LVESP” value (isolated rat hearts; 1 μM) was 104 ± 6 mmHg and the “Initial dP/dtmax” value (isolated rat hearts; 1 μM) was 2493 ± 128 mmHg/s. The “Initial dP/dtmin” value (isolated rat hearts; 1 μM) was −1786 ± 97 mmHg/s, the “cardio depressive effect on post-reperfused cardiac function compared to all other groups” value (isolated rat hearts; 10 μM) was “most cardio depressive effect” and the “reduction of infarct size compared to control I/R hearts” value (isolated rat hearts; 10 μM) was “reduced infarct size”. For the same molecule, the “stunning concentration relative to the concentration needed to produce a 50% reduction in infarct size” value (isolated rat hearts; 10 μM) was 10,000 times, the “stunning of the heart during reperfusion” value (isolated rat hearts; 10 μM) was “caused stunning” and the “effect on reducing infarct size” value (isolated rat hearts; 10 μM and 1 μM) was “most robust effect on reducing infarct size”. For the same molecule, the “Final Coronary Flow” value (isolated rat hearts; 10 μM) was 0 mL/min, the “Final Heart Rate” value (isolated rat hearts; 10 μM) was 811 ± 79 BPM and the “Final LVDP” value (isolated rat hearts; 10 μM) was 1 ± 0.2 mmHg. For the same molecule, the “Final LVEDP” value (isolated rat hearts; 10 μM) was 68 ± 17 mmHg, the “Final LVESP” value (isolated rat hearts; 10 μM) was 69 ± 17 mmHg and the “Final dP/dtmax” value (isolated rat hearts; 10 μM) was 54 ± 14 mmHg/s. The “Final dP/dtmin” value (isolated rat hearts; 10 μM) was −56 ± 14 mmHg/s, the “Infarct Size” value (isolated rat hearts; 10 μM) was 5 ± 2 % and the “Initial Coronary Flow” value (isolated rat hearts; 10 μM) was 18 ± 2 mL/min. The “Initial Heart Rate” value (isolated rat hearts; 10 μM) was 285 ± 24 BPM, the “Initial LVDP” value (isolated rat hearts; 10 μM) was 92 ± 3 mmHg and the “Initial LVEDP” value (isolated rat hearts; 10 μM) was 8 ± 2 mmHg. For the same molecule, the “Initial LVESP” value (isolated rat hearts; 10 μM) was 101 ± 4 mmHg, the “Initial dP/dtmax” value (isolated rat hearts; 10 μM) was 2540 ± 158 mmHg/s and the “Initial dP/dtmin” value (isolated rat hearts; 10 μM) was −1772 ± 141 mmHg/s. The “minimum effective concentration, tissue-salvaging effects (infarct size)” value (isolated rat hearts; ex vivo rat I/R hearts) was 1 nM and the “decrease in minimum effective concentration (increase in potency to reduce infarct size) as compared to Myr+PKCε−” value (isolated rat hearts; infarct size, FIG. 3) was 10,000 ×.
